Results taken from US5453441A, “Substituted arginines and substituted homoarginines and use thereof” (Cornell Research Foundation, Inc., priority 1994, dated 1995).

Legend:
[1] = system: pressor response; assay type: in vivo, rat; conditions: phenylephrine 0.1 to 10 μg/kg, angiotensin II 0.01 to 1 μg/kg
Procedure: To establish that nitric oxide overproduction can result in a diminished sensitivity to pressor agents, studies in a rat model of septic hypotension, i.e., the endotoxic-, pithed-rat, are performed.
Animals are either untreated (control) or treated with endotoxin (lipopolysaccharide-treated; 15 mg/kg, i.p.) 6 hours prior to their being pithed and instrumented for blood pressure recording. Prior to pithing, mean systematic arterial pressure in control rats is about 120 mm Hg. Pressure falls about 50% after pithing of control animals and is reduced to about 25% of normal in pithed endotoxin-treated animals.
Responsiveness is restored to more than 50% of the responsiveness seen in pithed control rats.

[2] = system: inducible form of nitric oxide synthase; assay: Inhibition of nitric oxide synthesis by nitric oxide synthase (inducible form) from cytokine-treated rat aortic smooth muscle cells; assay type: biochemical, adult male Fischer 344 rats
Procedure: Reaction mixtures were made up containing 50 μL of a working solution, 10 μL myoglobin solution (3 mg/ml), 10 μL inhibitor, 20 μL nitric oxide synthase and 10 μL water.
The working mixture was made up to contain 160 mM tris buffer, 200 μM L-arginine, 1 mM NADPH, 20 μM flavin adenine dinucleotide, 20 μM tetrahydrobiopterin in distilled water (pH adjusted to 7.6 by adding 10N NaOH).
The nitric oxide synthase was obtained as follows: Aortic smooth muscle cells were cultured by explanting segments of the medial layer of aortae from adult male Fischer 344 rats. Aortae were removed aseptically and freed of adventitial and endothelial cells by scraping both the lumenal and abluminal surfaces. Medial fragments (1-2 mm) were allowed to attach to dry Primaria 25 cm^2 tissue culture flasks (Falcon; Oxnard, Calif.) which were kept moist with growth medium until cells emerged. Cultures were fed twice weekly with medium 199 containing 10% fetal bovine serum, 25 mM HEPES, 2 mM L-glutamine, 40 μg/ml endothelial cell growth supplement (Biomedical Technologies; Stoughton, Mass.) and 10 μg/ml gentamycin (GIBCO; Grand Island, N.Y.). When primary cultures became confluent, they were passaged by trypsinization. Cells in passage 10-15 were seeded at 20,000/well. […]

angiotensin II: listed among suitable α1 -adrenergic agonists; pressor agent (DRVYIHPF; Angiotensin-2; UniProt P01019 25-32, looked up)
pressor effect in pithed control rats [1]: strong pressor effect
pressor effect in pithed endotoxic rats [1]: negligible effect

CC(N)(CCCNC(=N)NN)C(=O)O (racemic) [α-methyl-N^ω -amino-DL-arginine, α-Methyl-N^ω -Amino-DL-Arginine]
effectiveness relative to the commercial compound (N^ω -methyl-DL-arginine), based on the concentration necessary to inhibit 50% [2]: about twice as effective as the commercial compound

CNC[C@H](O)c1cccc(O)c1 [phenylephrine]
pressor effect in pithed control rats [1]: strong pressor effect
pressor effect in pithed endotoxic rats [1]: negligible effect
